Results reported in paper PMC7082118 (Oncotarget, 2020).
Read-outs that look alike come from different tables or passages of the source.

Assays:
CSF1R/FMS = molecular target: T1, CSF1R/FMS (Homo sapiens, UniProt P07333); assay: KINOMEscan kinase binding assay
T1 construct: purchased Eurofins (KINOMEscan service)
Protocol: (§1) Kd values were calculated from duplicate 11-point dose-response curves.
(§2) KINOMEscan kinase binding assays were performed at a Eurofins laboratory as previously described.

FLT1 = molecular target: T2, FLT1 (Homo sapiens, UniProt P17948); assay: KINOMEscan kinase binding assay
T2 construct: purchased Eurofins (KINOMEscan service)
Protocol: as §1, §2

FLT4 = molecular target: T3, FLT4 (Homo sapiens, UniProt P35916); assay: KINOMEscan kinase binding assay
T3 construct: purchased Eurofins (KINOMEscan service)
Protocol: as §1, §2

KDR/VEGFR2 = molecular target: T4, KDR/VEGFR2 (Homo sapiens, UniProt P35968); assay: KINOMEscan kinase binding assay
T4 construct: purchased Eurofins (KINOMEscan service)
T4 sequence (P35968 20-1356): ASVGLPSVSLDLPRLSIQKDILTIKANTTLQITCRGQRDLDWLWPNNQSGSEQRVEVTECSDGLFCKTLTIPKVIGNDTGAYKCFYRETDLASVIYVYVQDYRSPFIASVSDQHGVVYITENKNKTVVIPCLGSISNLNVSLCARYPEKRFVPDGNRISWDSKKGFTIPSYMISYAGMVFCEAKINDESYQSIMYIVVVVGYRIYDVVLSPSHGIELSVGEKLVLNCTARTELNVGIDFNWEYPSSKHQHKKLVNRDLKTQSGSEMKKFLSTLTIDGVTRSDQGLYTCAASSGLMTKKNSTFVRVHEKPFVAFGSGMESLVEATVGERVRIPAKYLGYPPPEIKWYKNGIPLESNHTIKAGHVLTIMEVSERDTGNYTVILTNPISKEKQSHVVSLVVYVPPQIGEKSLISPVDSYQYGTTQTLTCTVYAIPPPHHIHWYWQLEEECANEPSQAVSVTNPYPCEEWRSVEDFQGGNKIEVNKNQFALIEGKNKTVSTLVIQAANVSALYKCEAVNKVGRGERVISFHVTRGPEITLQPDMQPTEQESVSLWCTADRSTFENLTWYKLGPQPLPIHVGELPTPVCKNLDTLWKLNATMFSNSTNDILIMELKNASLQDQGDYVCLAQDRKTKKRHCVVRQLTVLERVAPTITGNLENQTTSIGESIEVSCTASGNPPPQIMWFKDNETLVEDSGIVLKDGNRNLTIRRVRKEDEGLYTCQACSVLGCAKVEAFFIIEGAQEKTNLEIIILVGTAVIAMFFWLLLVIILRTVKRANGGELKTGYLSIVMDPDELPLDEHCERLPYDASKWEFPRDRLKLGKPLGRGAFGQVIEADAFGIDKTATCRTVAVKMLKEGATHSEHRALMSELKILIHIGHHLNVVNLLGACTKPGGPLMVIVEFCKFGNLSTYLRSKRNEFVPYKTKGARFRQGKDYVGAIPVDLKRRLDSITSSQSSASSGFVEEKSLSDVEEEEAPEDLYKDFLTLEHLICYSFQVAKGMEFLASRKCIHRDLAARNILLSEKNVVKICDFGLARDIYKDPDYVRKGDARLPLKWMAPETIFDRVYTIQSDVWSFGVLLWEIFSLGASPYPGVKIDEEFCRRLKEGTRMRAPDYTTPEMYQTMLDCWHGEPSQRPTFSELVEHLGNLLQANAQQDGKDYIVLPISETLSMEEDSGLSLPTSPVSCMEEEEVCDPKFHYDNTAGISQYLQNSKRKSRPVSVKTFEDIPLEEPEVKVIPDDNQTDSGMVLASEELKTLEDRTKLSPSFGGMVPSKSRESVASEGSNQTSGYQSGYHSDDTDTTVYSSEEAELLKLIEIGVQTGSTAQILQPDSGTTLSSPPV
Protocol: as §1, §2

KIT = molecular target: T5, KIT (Homo sapiens, UniProt P10721); assay: KINOMEscan kinase binding assay; conditions: kinase KIT
T5 construct: purchased Eurofins (KINOMEscan service)
Protocol: as §1, §2

MEK5 = molecular target: T6, MEK5 (Homo sapiens, UniProt Q13163); assay: KINOMEscan kinase binding assay; conditions: kinase MEK5 (Entrez MAP2K5)
T6 construct: purchased Eurofins (KINOMEscan service)
T6 sequence (Q13163 whole entry): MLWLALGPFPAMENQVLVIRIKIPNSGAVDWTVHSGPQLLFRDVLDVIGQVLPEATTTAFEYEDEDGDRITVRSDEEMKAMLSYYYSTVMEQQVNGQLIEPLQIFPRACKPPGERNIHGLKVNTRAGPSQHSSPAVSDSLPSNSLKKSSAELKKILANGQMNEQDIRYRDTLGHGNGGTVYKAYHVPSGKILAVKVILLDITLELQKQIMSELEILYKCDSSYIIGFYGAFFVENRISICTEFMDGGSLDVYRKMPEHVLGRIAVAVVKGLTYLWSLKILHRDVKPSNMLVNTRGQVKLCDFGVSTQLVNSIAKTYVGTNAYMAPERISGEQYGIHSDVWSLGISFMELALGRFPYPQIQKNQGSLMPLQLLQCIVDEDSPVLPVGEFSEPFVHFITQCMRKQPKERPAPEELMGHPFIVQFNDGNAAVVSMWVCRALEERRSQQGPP
Protocol: as §1, §2

PDGFRα = molecular target: T7, PDGFRα (Homo sapiens, UniProt P16234); assay: KINOMEscan kinase binding assay; conditions: kinase PDGFRA (PDGFRA)
T7 construct: purchased Eurofins (KINOMEscan service)
T7 sequence (P16234 24-1089): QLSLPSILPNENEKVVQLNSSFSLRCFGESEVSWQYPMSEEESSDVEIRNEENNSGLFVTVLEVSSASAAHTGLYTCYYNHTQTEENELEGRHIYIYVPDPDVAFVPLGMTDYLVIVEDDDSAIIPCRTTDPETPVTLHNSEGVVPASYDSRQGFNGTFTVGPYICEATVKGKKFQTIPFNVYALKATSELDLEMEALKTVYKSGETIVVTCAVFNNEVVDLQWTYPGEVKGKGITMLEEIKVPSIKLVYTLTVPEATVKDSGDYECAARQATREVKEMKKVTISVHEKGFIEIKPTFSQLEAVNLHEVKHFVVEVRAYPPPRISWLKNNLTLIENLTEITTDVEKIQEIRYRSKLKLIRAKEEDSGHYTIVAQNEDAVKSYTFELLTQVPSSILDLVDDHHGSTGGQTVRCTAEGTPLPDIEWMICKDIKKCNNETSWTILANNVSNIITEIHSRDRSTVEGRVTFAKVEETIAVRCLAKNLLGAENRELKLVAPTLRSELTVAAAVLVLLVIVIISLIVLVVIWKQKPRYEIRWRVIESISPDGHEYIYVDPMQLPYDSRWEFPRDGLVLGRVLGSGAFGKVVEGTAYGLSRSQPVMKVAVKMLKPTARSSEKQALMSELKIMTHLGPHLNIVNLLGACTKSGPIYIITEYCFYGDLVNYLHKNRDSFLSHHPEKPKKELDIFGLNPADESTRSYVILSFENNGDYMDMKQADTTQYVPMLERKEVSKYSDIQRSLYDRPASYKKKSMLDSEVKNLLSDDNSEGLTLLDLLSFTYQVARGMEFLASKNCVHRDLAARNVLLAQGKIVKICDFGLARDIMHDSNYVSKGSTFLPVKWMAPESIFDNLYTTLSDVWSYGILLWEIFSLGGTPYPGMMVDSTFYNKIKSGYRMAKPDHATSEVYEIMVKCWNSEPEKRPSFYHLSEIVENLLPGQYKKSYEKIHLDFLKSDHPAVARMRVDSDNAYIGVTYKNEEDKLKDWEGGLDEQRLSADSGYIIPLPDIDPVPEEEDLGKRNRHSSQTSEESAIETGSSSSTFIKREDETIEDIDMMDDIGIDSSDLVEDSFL
Protocol: as §1, §2

PDGFRβ = molecular target: T8, PDGFRβ (Homo sapiens, UniProt P09619); assay: KINOMEscan kinase binding assay; conditions: kinase PDGFRB (PDGFRB)
T8 construct: purchased Eurofins (KINOMEscan service)
Protocol: as §1, §2

RET = molecular target: T9, RET (Homo sapiens, UniProt P07949); assay: KINOMEscan kinase binding assay
T9 construct: purchased Eurofins (KINOMEscan service)
T9 sequence (P07949 29-1114): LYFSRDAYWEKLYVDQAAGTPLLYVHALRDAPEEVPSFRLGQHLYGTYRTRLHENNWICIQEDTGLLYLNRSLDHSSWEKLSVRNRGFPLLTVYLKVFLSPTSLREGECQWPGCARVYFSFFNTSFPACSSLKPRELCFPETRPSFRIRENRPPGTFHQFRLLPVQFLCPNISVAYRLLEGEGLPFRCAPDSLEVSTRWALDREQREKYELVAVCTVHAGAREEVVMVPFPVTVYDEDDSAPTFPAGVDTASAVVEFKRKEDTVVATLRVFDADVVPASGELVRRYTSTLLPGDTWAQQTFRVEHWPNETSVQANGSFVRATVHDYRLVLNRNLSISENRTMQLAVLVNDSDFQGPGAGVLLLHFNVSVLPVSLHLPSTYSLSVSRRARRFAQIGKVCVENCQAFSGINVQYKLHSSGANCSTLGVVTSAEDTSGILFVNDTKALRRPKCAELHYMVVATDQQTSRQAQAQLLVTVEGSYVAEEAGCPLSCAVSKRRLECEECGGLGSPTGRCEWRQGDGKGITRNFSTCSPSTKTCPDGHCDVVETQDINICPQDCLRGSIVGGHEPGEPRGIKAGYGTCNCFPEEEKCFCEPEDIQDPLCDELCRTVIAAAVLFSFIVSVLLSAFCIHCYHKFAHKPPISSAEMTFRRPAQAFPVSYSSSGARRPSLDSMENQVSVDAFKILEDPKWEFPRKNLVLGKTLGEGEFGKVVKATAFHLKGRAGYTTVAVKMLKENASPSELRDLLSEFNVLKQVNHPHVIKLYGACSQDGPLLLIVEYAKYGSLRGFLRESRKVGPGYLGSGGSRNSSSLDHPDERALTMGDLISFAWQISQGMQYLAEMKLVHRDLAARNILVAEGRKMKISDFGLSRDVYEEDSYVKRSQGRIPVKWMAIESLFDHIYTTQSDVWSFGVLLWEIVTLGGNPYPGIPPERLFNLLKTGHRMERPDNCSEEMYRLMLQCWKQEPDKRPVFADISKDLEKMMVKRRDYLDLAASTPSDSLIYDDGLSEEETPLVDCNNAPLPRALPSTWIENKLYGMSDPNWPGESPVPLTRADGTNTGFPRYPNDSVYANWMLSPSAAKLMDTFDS
Protocol: as §1, §2

ULK2 = molecular target: T10, ULK2 (Homo sapiens, UniProt Q8IYT8); assay: KINOMEscan kinase binding assay; conditions: kinase ULK2 (ULK2)
T10 construct: purchased Eurofins (KINOMEscan service)
T10 sequence (Q8IYT8 1-1036): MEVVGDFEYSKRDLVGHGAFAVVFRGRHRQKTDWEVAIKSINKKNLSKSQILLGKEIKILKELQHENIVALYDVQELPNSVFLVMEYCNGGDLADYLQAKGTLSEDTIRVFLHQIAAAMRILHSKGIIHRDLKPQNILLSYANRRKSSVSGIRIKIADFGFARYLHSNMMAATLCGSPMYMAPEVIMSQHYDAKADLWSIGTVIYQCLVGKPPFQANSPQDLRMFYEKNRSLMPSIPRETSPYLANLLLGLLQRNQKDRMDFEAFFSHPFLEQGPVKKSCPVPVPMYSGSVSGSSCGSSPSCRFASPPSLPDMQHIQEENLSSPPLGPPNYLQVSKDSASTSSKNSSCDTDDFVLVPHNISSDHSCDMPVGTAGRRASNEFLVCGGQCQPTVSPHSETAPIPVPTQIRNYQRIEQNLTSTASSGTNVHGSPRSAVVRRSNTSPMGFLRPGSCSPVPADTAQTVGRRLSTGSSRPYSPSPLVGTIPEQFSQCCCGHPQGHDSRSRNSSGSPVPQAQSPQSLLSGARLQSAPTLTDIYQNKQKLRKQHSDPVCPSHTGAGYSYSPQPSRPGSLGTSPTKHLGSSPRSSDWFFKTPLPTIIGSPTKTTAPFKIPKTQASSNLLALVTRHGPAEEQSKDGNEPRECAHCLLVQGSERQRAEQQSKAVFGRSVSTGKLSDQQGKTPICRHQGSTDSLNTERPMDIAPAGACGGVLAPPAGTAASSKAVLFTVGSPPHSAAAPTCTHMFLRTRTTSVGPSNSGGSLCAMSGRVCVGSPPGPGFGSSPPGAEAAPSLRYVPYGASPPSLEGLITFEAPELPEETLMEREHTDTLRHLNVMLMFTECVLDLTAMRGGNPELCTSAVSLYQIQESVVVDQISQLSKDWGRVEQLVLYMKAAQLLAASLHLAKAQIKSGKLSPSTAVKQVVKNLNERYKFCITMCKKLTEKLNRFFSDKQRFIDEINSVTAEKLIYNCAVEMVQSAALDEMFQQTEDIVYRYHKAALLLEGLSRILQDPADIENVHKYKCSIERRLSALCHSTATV
Protocol: as §1, §2

FLT3 signaling = assay: FLT3 inhibitor washout experiment in MOLM-14 cells; type: cell-based, human
EOL-1 cells = assay: Cell viability assay (CellTiter-Glo 2.0); type: cell-based, human; conditions: Homo sapiens, EOL1, 72 h; EOL-1, wild-type FLT3 with FIP1L-PDGFRα, 3 days
Protocol: (§3) Human AML cell lines MV4-11, Kasumi-1, HL-60, and THP-1 were purchased from the American Type Culture Collection (Manassas, Virginia, USA). MV4-11 cells were cultured in Iscove’s Modified Dulbecco’s Medium (IMDM; Thermo Fisher Scientific, Waltham, Massachusetts, USA) supplemented with 10% (vol/vol) heat-inactivated fetal bovine serum (FBS; GE Healthcare Ltd, Chicago, Illinois, USA). […] HL-60 cells were cultured in IMDM supplemented with 20% (vol/vol) heat-inactivated FBS. […] Human AML cell lines, MOLM-13, MOLM-14, EOL-1, and OCI-AML3, were purchased from Leibniz-Institut DSMZ-Deutsche Sammlung von Mikroorganismen und Zellkulturen GmbH.
(§4) The amount of ATP in viable cells was quantified as a luminescent signal using the CellTiter-Glo 2.0 Assay (Promega Corporation, Madison, Wisconsin, USA) and EnVision (PerkinElmer Inc, Waltham, Massachusetts, USA) to determine the number of viable cells according to the manufacturers’ instructions.

HL-60 cells = assay: Cell viability assay (CellTiter-Glo 2.0); type: cell-based, human; conditions: Homo sapiens, 72 h; HL-60, wild-type FLT3, 3 days
Protocol: as §3, §4

Kasumi-1 cells = assay: Cell viability assay (CellTiter-Glo 2.0); type: cell-based, human; conditions: Homo sapiens, Kasumi 1, 72 h
Protocol: as §3, §4

MOLM-13 cells = assay: Cell viability assay (CellTiter-Glo 2.0); type: cell-based, human; conditions: Homo sapiens
Protocol: as §3, §4

MOLM-14 cells = assay: Cell viability assay (CellTiter-Glo 2.0); type: cell-based, human; conditions: Homo sapiens, MOLM-14, 72 h, 3 days, read-out: IC50, cell viability
Protocol: as §3, §4

MV4-11 cells = assay: Cell viability assay (CellTiter-Glo 2.0); type: cell-based, human; conditions: Homo sapiens, 72 h; MV4-11, FLT3-ITD, 3 days
Protocol: as §3, §4

OCI-AML3 cells = assay: Cell viability assay (CellTiter-Glo 2.0); type: cell-based, human; conditions: Homo sapiens, OCI-AML-3, 72 h; OCI-AML3, wild-type FLT3, 3 days; read-out: IC50, cell viability
Protocol: as §3, §4

THP-1 cells = assay: Cell viability assay (CellTiter-Glo 2.0); type: cell-based, human; conditions: Homo sapiens, 72 h; THP-1, wild-type FLT3, 3 days; read-out: IC50, cell viability
Protocol: as §3, §4

MOLM-14-MR2 tumors = assay: MOLM-14-MR2 xenograft mouse model; type: in vivo; conditions: MOLM-14-MR2 tumors (NRAS mutated), oral once per day
MOLM-14-MR cells = assay: cells; conditions: Homo sapiens, 72 h, read-out: IC50, cell viability
MOLM-14-MR2 cells = assay: cells; conditions: Homo sapiens, 72 h, read-out: IC50, cell viability
MOLM-13-QR cells = assay: cells; conditions: Homo sapiens, read-out: IC50, cell viability
MOLM-13-QR2 cells = assay: cells; conditions: Homo sapiens, read-out: IC50, cell viability
[1] = test system: midostaurin-resistant MOLM-14 cells; assay: cells; conditions: Homo sapiens, MOLM-14, read-out: IC50 against midostaurin-resistant MOLM-14 cells
MV4-11 tumors = assay: MV4-11 xenograft mouse model; conditions: Figure 3B

T1 sequence (P07333 20-972): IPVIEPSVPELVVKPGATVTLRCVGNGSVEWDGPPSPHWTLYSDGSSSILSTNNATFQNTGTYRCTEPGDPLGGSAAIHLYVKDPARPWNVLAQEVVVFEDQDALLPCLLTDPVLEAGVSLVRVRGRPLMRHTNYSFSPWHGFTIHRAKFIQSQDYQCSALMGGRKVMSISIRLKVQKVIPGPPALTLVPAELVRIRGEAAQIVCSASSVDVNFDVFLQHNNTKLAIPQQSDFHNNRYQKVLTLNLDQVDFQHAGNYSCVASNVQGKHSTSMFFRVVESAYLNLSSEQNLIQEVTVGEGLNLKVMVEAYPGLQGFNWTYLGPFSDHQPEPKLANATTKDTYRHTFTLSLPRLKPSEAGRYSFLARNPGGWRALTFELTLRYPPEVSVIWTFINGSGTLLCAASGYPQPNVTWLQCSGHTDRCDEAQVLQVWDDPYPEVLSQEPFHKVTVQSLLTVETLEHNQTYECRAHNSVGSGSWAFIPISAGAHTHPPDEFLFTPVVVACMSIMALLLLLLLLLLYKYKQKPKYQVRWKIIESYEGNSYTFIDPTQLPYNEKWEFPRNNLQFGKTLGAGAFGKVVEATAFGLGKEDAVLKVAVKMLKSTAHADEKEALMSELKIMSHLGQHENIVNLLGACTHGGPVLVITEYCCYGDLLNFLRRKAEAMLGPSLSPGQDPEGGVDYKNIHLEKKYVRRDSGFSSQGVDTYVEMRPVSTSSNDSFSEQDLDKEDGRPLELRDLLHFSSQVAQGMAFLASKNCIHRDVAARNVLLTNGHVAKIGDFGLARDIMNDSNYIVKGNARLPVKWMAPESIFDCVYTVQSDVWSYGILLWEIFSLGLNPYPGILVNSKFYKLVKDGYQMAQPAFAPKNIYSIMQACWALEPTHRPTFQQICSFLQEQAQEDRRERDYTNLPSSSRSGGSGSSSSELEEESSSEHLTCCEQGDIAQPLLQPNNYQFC

Compound: CCc1nc(C(N)=O)c(Nc2ccc(N3CCC(N4CCN(C)CC4)CC3)c(OC)c2)nc1NC1CCOCC1 [Gilteritinib, gilteritinib]
- Kd (CSF1R/FMS): 46 nM
- Kd (FLT1): 380 nM
- Kd (FLT4): 150 nM
- Kd (KDR/VEGFR2): 100 nM
- Kd (KIT): 86 nM
- Kd (MEK5): 7.8 nM
- Kd (PDGFRα): 53 nM
- Kd (PDGFRβ): 240 nM
- Kd (RET): 11 nM
- Kd (ULK2): 700 nM
- Durability of inhibition of FLT3 and ERK phosphorylation after removal of inhibitor (FLT3 signaling): no significant inhibitory activity starting 1 hour after removal
- Long-term durability of inhibition of FLT3 signaling after compound withdrawal (FLT3 signaling): no longer able to inhibit FLT3 signaling at 24 hours
- IC50 (EOL-1 cells): 30.9 nM
- IC50 (HL-60 cells): 391 nM
- IC50 (Kasumi-1 cells): 160 nM
- IC50 (MOLM-13 cells; 72 h, MOLM-13, FLT3-ITD, 3 days, Supplementary Table 3): 10 nM
- IC50 (MOLM-13 cells; parental MOLM-13, FLT3-ITD, Supplementary Table 4): 7.89 nM
- IC50 (MOLM-14 cells; MOLM-14, FLT3-ITD, Supplementary Table 3): 7.41 nM
- IC50 (MOLM-14 cells; parental MOLM-14, FLT3-ITD, Figure 4B): 7.87 nM
- IC50 (MV4-11 cells): 2.01 nM
- IC50 (OCI-AML3 cells): 1420 nM
- IC50 (THP-1 cells): 1530 nM
- EC50, tumor growth inhibition (MOLM-14-MR2 tumors): > 10 mg/kg
- IC50 (MOLM-14-MR cells): 49.3 nM
- IC50 (MOLM-14-MR2 cells): 29.1 nM
- IC50 (MOLM-13-QR cells): 9.68 nM
- IC50 (MOLM-13-QR2 cells): 43 nM
- IC50 [1]: 29.1 to 49.3 nM
- TGI (MV4-11 tumors; 1 mg/kg oral once per day): 48%
- TGI (MV4-11 tumors; 3 mg/kg oral once per day): 82%
- TGI (MV4-11 tumors; 10 mg/kg oral once per day): 100%
- EC90, tumor growth inhibition (MV4-11 tumors; oral once per day): 5.06 mg/kg
